In one experiment the target is D2 receptor (Homo sapiens, UniProt P14416). The experiment is described as follows: [3H]Thymidine uptake assay for D2 intrinsic activity. The format is cell-based. The conditions noted are these: Table 1; test compound 1 μM; 1 μM Quinpirole = 100% intrinsic activity.
D2 receptor, sequence (P14416 whole entry): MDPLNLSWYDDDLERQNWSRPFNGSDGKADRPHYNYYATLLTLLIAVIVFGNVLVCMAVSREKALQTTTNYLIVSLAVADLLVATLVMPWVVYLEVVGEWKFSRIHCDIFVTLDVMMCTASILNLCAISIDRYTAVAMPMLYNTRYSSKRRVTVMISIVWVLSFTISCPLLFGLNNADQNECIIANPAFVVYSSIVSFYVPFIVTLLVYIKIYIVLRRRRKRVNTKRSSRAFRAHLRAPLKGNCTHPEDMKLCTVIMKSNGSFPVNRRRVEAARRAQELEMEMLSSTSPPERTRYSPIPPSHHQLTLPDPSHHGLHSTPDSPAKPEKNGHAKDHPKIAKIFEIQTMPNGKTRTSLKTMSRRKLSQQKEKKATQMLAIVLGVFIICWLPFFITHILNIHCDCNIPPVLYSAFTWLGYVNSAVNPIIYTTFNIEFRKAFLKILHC
For `O=C1CCc2c(C(F)(F)F)cc(OCCCCN3CCN(c4cccc5c4CCCC5)CC3)nc2N1` [Example E15, 7-{4-[4-(5,6,7,8-Tetrahydro-naphthalen-1-yl)-piperazin-1-yl]-butoxy}-5-trifluoromethyl-3,4-dihydro-1H-[1,8]naphthyridin-2-one], the Emax (usually the greatest response seen or fitted, relative to the assay's reference) at 1 µM was found to be 20%. Compound `O=C1CCc2cnc(OCCCCN3CCN(c4cccc(Cl)c4Cl)CC3)c(Cl)c2N1` [Example I9, 8-Chloro-7-{4-[4-(2,3-dichloro-phenyl)-piperazin-1-yl]-butoxy}-3,4-dihydro-1H-[1,6]naphthyridin-2-one] yielded an Emax at 1 µM of 19%. `O=c1ccc2cnc(OCCCCN3CCN(c4cccc5ccc(F)cc45)CC3)cc2[nH]1` [Example I17, 7-{4-[4-(7-Fluoro-naphthalen-1-yl)-piperazin-1-yl]-butoxy}-1H-[1,6]naphthyridin-2-one] came in with a maximal effect (Emax) at 1 µM of 32%. `CCc1c(Cl)cccc1N1CCN(CCCCOc2ccc3c(n2)NC(=O)CC3)CC1` [Example A29, 7-{4-[4-(3-Chloro-2-ethyl-phenyl)-piperazin-1-yl]-butoxy}-3,4-dihydro-1H-[1,8]naphthyridin-2-one] had an Emax at 1 µM of 20%. Same read-out and setting: the result for `O=C1CCc2ccc(OCCCCN3CCN(c4cccc5cc(Cl)ccc45)CC3)nc2N1` [Example A76, 7-{4-[4-(6-Chloro-naphthalen-1-yl)-piperazin-1-yl]-butoxy}-3,4-dihydro-1H-[1,8]naphthyridin-2-one] reads 16%.

As for `Cc1nc(OCCCCN2CCN(c3cccc4ccccc34)CC2)nc2[nH]c(=O)ccc12` [Example H12, 4-Methyl-2-[4-(4-naphthalen-1-yl-piperazin-1-yl)-butoxy]-8H-pyrido[2,3-d]pyrimidin-7-one], the Emax at 1 µM stood at 34%. In the case of `O=C1CCc2ccc(CCCCCN3CCN(c4cccc5c4CCCC5)CC3)nc2N1` [Example C12, 7-{5-[4-(5,6,7.8-Tetrahydro-naphthalen-1-yl)-piperazin-1-yl]-pentyl}-3,4-dihydro-1H-[1,8]naphthyridin-2-one], the maximum response (Emax) at 1 µM worked out at 12%. As to `O=C1CCc2cc(Cl)c(OCCCCN3CCN(c4cccc5ccccc45)CC3)nc2N1` [Example E6, 6-Chloro-7-[4-(4-naphthalen-1-yl-piperazin-1-yl)-butoxy]-3,4-dihydro-1H-[1,8]naphthyridin-2-one], the Emax at 1 µM was 32%. On the same count and under the same terms, the result for `O=C1CCc2ccc(CCCCCN3CCN(c4ccc(F)c(Cl)c4Cl)CC3)nc2N1` [Example C11, 7-{5-[4-(2,3-Dichloro-4-fluoro-phenyl)-piperazin-1-yl]-pentyl}-3,4-dihydro-1H-[1,8]naphthyridin-2-one] reads 7%. On to `O=C1CCc2cc(Br)c(OCCCCN3CCN(c4cccc(Cl)c4Cl)CC3)nc2N1` [Example E7, 6-Bromo-7-{4-[4-(2,3-dichloro-phenyl)-piperazin-1-yl]-butoxy}-3,4-dihydro-1H-[1,8]naphthyridin-2-one], for which the Emax at 1 µM is 19%.

Staying with this experiment, now noted: Table 2; test compound 1 μM; 1 μM Quinpirole = 100% intrinsic activity.
Consider `Cc1ccc2cccc(N3CCN(CCCCOc4ncc5ccc(=O)[nH]c5n4)CC3)c2n1` [Example G9′, 2-{4-[4-(2-Methyl-quinolin-8-yl)-piperazin-1-yl]-butoxy}-8H-pyrido[2,3-d]pyrimidin-7-one], for which the Emax at 1 µM turned out to be 21%. `CC1(C)Cc2cccc(N3CCN(CCCCOc4ccc5c(n4)NC(=O)CC5)CC3)c2O1` [Example A3′, 7-{4-[4-(2,2-Dimethyl-2,3-dihydro-benzofuran-7-yl)-piperazin-1-yl]-butoxy}-3,4-dihydro-1H-[1,8]naphthyridin-2-one] returned an Emax at 1 µM of 37%. For the compound `O=C1CCc2ccc(OCCCCN3CCN(c4cccc5c4OCCO5)CC3)nc2N1` [Example A16′, 7-{4-[4-(2,3-Dihydro-benzo[1,4]dioxin-5-yl)-piperazin-1-yl]-butoxy}-3,4-dihydro-1H-[1,8]naphthyridin-2-one], the Emax at 1 µM was determined as 15%. On the same count and under the same terms, the result for `Cn1ccc2c(N3CCN(CCCCOc4ccc5c(n4)NC(=O)CC5)CC3)cccc21` [Example A26′, 7-{4-[4-(1-Methyl-1H-indol-4-yl)-piperazin-1-yl]-butoxy}-3,4-dihydro-1H-[1,8]naphthyridin-2-one] reads 12%.

The values are drawn from patent US7160888B2, “[1,8]naphthyridin-2-ones and related compounds for the treatment of schizophrenia” (Warner Lambert Company LLC, priority 2003, dated 2007).
